Tested on: 945468-187-T-J3-PDC spheroids with HUVEC/MSC, viability
Assay: Anticancer human tumor 945468-187-T-J3-PDC patient-derived rectal carcinoma cell line growth inhibition [PI3K]
Conditions: for IC50: curve of first compound; for viability, T/C: stronger effect = lower value
Method in brief: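 Complex 3D spheroids (cancer cells + endothelial HUVEC + mesenchymal stem cells); drug pairs of targeted agent x inavolisib/alpelisib/duvelisib/copanlisib; half-log series from ~Cmax, max 10 microM if Cmax unknown; endpoint viability.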

[1] = second compound 0.0316 µM, first compound 0.0316 µM
[2] = second compound 0.0316 µM, first compound 0.1 µM
[3] = second compound 0.0316 µM, first compound 0.316 µM
[4] = second compound 0.0316 µM, first compound 1 µM
[5] = second compound 0.0316 µM, first compound 3.16 µM
[6] = second compound 0.0316 µM, first compound 10 µM
[7] = second compound 0.1 µM, first compound 0.0316 µM
[8] = second compound 0.1 µM, first compound 0.1 µM
[9] = second compound 0.1 µM, first compound 0.316 µM
[10] = second compound 0.1 µM, first compound 1 µM
[11] = second compound 0.1 µM, first compound 3.16 µM
[12] = second compound 0.1 µM, first compound 10 µM
[13] = second compound 0.316 µM, first compound 0.0316 µM
[14] = second compound 0.316 µM, first compound 0.1 µM
[15] = second compound 0.316 µM, first compound 0.316 µM
[16] = second compound 0.316 µM, first compound 1 µM
[17] = second compound 0.316 µM, first compound 3.16 µM
[18] = second compound 0.316 µM, first compound 10 µM
[19] = second compound 1 µM, first compound 0.0316 µM
[20] = second compound 1 µM, first compound 0.1 µM
[21] = second compound 1 µM, first compound 0.316 µM
[22] = second compound 1 µM, first compound 1 µM
[23] = second compound 1 µM, first compound 3.16 µM
[24] = second compound 1 µM, first compound 10 µM
[25] = second compound 3.16 µM, first compound 0.0316 µM
[26] = second compound 3.16 µM, first compound 0.1 µM
[27] = second compound 3.16 µM, first compound 0.316 µM
[28] = second compound 3.16 µM, first compound 1 µM
[29] = second compound 3.16 µM, first compound 3.16 µM
[30] = second compound 3.16 µM, first compound 10 µM
[31] = second compound 10 µM, first compound 0.0316 µM
[32] = second compound 10 µM, first compound 0.1 µM
[33] = second compound 10 µM, first compound 0.316 µM
[34] = second compound 10 µM, first compound 1 µM
[35] = second compound 10 µM, first compound 3.16 µM
[36] = second compound 10 µM, first compound 10 µM
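Also: spheroids exposed to agents for 7 days before viability read.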
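For viability, T/C in this document: 100% = DMSO vehicle control viability.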

C=CC(=O)N1CCN(c2nc(=O)n(-c3c(C)ccnc3C(C)C)c3nc(-c4c(O)cccc4F)c(F)cc23)C(C)C1 (centres undefined) + CC(Nc1ncnc2nc[nH]c12)c1cc2cccc(Cl)c2c(=O)n1-c1ccccc1
IC50 (second compound 0.0316 µM): > 10 µM | IC50 (second compound 0.1 µM): > 10 µM | IC50 (second compound 0.316 µM): > 10 µM | IC50 (second compound 1 µM): > 10 µM | IC50 (second compound 3.16 µM): > 10 µM | IC50 (second compound 10 µM): > 10 µM | viability, T/C [1]: 91.9% | viability, T/C [2]: 92.9% | viability, T/C [3]: 104% | viability, T/C [4]: 96.4% | viability, T/C [5]: 96.6% | viability, T/C [6]: 98.3% | viability, T/C [7]: 94.7% | viability, T/C [8]: 103% | viability, T/C [9]: 100% | viability, T/C [10]: 92.6% | viability, T/C [11]: 107% | viability, T/C [12]: 95.9% | viability, T/C [13]: 94.8% | viability, T/C [14]: 92.9% | viability, T/C [15]: 88.5% | viability, T/C [16]: 91.6% | viability, T/C [17]: 106% | viability, T/C [18]: 99.3% | viability, T/C [19]: 99.3% | viability, T/C [20]: 105% | viability, T/C [21]: 94.8% | viability, T/C [22]: 94.1% | viability, T/C [23]: 107% | viability, T/C [24]: 95.8% | viability, T/C [25]: 90.5% | viability, T/C [26]: 99.6% | viability, T/C [27]: 101% | viability, T/C [28]: 110% | viability, T/C [29]: 97.2% | viability, T/C [30]: 93.4% | viability, T/C [31]: 104% | viability, T/C [32]: 91.1% | viability, T/C [33]: 97.9% | viability, T/C [34]: 97.6% | viability, T/C [35]: 116% | viability, T/C [36]: 93.9%

CC(C)NCC(C(=O)N1CCN(c2ncnc3c2C(C)CC3O)CC1)c1ccc(Cl)cc1 (centres undefined) + CC(Nc1ncnc2nc[nH]c12)c1cc2cccc(Cl)c2c(=O)n1-c1ccccc1
IC50 (second compound 0.0316 µM): 4.58 µM | IC50 (second compound 0.1 µM): 6.84 µM | IC50 (second compound 0.316 µM): 6.66 µM | IC50 (second compound 1 µM): 8.31 µM | IC50 (second compound 3.16 µM): 2.97 µM | IC50 (second compound 10 µM): 2.06 µM | viability, T/C [1]: 112% | viability, T/C [2]: 100% | viability, T/C [3]: 104% | viability, T/C [4]: 78.9% | viability, T/C [5]: 56.3% | viability, T/C [6]: 38.4% | viability, T/C [7]: 119% | viability, T/C [8]: 92.3% | viability, T/C [9]: 86% | viability, T/C [10]: 88.6% | viability, T/C [11]: 62.6% | viability, T/C [12]: 40.5% | viability, T/C [13]: 97.2% | viability, T/C [14]: 93.2% | viability, T/C [15]: 94.6% | viability, T/C [16]: 87.6% | viability, T/C [17]: 63.5% | viability, T/C [18]: 42.7% | viability, T/C [19]: 114% | viability, T/C [20]: 103% | viability, T/C [21]: 85.3% | viability, T/C [22]: 86% | viability, T/C [23]: 58.6% | viability, T/C [24]: 48.1% | viability, T/C [25]: 98.3% | viability, T/C [26]: 91.8% | viability, T/C [27]: 84.2% | viability, T/C [28]: 79.2% | viability, T/C [29]: 46.5% | viability, T/C [30]: 32.4% | viability, T/C [31]: 90.7% | viability, T/C [32]: 88% | viability, T/C [33]: 82.8% | viability, T/C [34]: 70.8% | viability, T/C [35]: 37.5% | viability, T/C [36]: 28.2%

Reference: PubChem BioAssay AID1963968 (Molecular Pharmacology Branch, DTP, NCI, 2024)
